Reference: patent publication US7682618B2 (priority 2001, dated 2010)

Legend:
[1] = tested on: EBOV infection of Vero E6 cells; format: cell-based, Ebola virus
[2] = tested on: Ebola GP in lipid rafts of 293T cells; format: cell-based, human

Compound	EBOV infection, viral titer 48 hour post infection [1]	virus production after recovery from drug treatment [1]	general cytotoxic effect, trypan blue exclusion (Vero E6 cells)	association of Ebola GP with rafts (detergent insoluble fraction) [2]
CCCCC[C@@H](O)[C@H]1C(=O)O[C@H](C)[C@@H](O)/C=C/C=C/C=C/C=C/C=C(\C)[C@@H](O)C[C@H](O)C[C@H](O)C[C@H](O)C[C@H](O)C[C@H](O)C[C@@H]1O [filipin]	significant inhibition of EBOV infection	could produce large amounts of virus	viable	–
nystatin	–	–	viable	–
methyl-β-cyclodextrin	–	–	–	almost complete removal of Ebola GP from rafts
